This note sets out measurements from ChEMBL document CHEMBL4265876, “Natural Products with Heteroatom-Rich Ring Systems” (J Nat Prod, 2017).

Values after ≈ are worked out from the molar mass of the structure shown. A value given as a limit tells only on which side of the number the result lay.

For experiment [1], the system named is Pyricularia oryzae. The experiment can be described thus: Antimicrobial activity against Pyricularia orizae. The experiment is classed as functional.
The test system of experiment [2] is Bacillus subtilis. Nature of the experiment: Antibacterial activity against Bacillus subtilis. The class given is functional.
Experiment [3] has as its system Proteus vulgaris. Nature of the experiment: Antibacterial activity against Proteus vulgaris. The experiment is classed as functional.
The subject of experiment [4] is Trichophyton rubrum. Nature of the experiment: Antifungal activity against Trichophyton rubrum. The class given is functional.
Experiment [5] relates to Colletotrichum gloeosporioides. Nature of the experiment: Antimicrobial activity against Glomerella cingulata. The class given is functional.
Experiment [6] deals with Cryptococcus neoformans. The experiment can be described thus: Antimicrobial activity against Cryptococcus neoformans. The class given is functional.
Experiment [7] relates to Candida albicans. Nature of the experiment: Antifungal activity against Candida albicans. The experiment is classed as functional.
Experiment [8] relates to Trichophyton mentagrophytes. Nature of the experiment: Antimicrobial activity against Trichophyton mentagrophytes. The experiment is classed as functional.
The subject of experiment [9] is Saccharomyces cerevisiae. The experiment can be described thus: Antimicrobial activity against Saccharomyces cerevisiae. The experiment is classed as functional.
Experiment [10] concerns NCI-H460. Nature of the experiment: Cytotoxicity against human NCI-H460 cells. The experiment is classed as functional, cell-based.
The subject of experiment [11] is HCT-116. The experiment can be described thus: Cytotoxicity against human HCT116 cells. The class given is functional, cell-based.
Experiment [12] has as its system HL-60. The experiment can be described thus: Cytotoxicity against human HL60 cells. The class given is functional, cell-based.
For experiment [13], the system named is DLD-1. The experiment can be described thus: Cytotoxicity against human DLD1 cells. The experiment is classed as functional, cell-based.
The subject of experiment [14] is Ruegeria atlantica. Nature of the experiment: […] activity against Ruegeria atlantica assessed as inhibition zone at 50 ug/disk. Conditions: read-out: IZ. The class given is functional.
Experiment [15] has as its system ACHN. The experiment can be described thus: Cytotoxicity against human ACHN cells. The class given is functional, cell-based.
The test system of experiment [16] is V79. The experiment can be described thus: Cytotoxicity against chinese hamster V79 cells. Conditions: Cricetulus griseus. The experiment is classed as cell-based.
Experiment [17] deals with MDA-MB-231. Nature of the experiment: Cytotoxicity against human MDA-MB-231 cells. The class given is functional, cell-based.
Experiment [18] deals with SK-OV-3. Nature of the experiment: Cytotoxicity against human SKOV3 cells. The experiment is classed as functional. The settings on record: read-out: ED50 (the source's name).
In experiment [19] the test system is XF498. Nature of the experiment: Cytotoxicity against human XF498 cells. The class given is functional. Conditions: read-out: ED50 (the source's name).
Experiment [20] has as its system SK-MEL-2. The experiment can be described thus: Cytotoxicity against human SK-MEL-2 cells. Conditions: read-out: ED50 (the source's name). The experiment is classed as functional.
Experiment [21] concerns HCT-15. Nature of the experiment: Cytotoxicity against human HCT15 cells. The class given is functional. The settings on record: read-out: ED50 (the source's name).
Experiment [22] relates to A549. The experiment can be described thus: Cytotoxicity against human A549 cells. The class given is functional. Conditions: read-out: ED50 (the source's name).
Experiment [23] has as its system Trypanosoma cruzi. Nature of the experiment: Antitrypanosomal activity against Trypanosoma cruzi Y by MTT assay. The class given is functional, organism-based.
In experiment [24] the test system is Trypanosoma cruzi. The experiment can be described thus: Antitrypanosomal activity against Trypanosoma cruzi Y intracellular amastigotes. The experiment is classed as functional, organism-based.
The test system of experiment [25] is Bacillus subtilis. The experiment can be described thus: […] activity against Bacillus subtilis assessed as inhibition zone at 120 ug/disk. The experiment is classed as functional. Conditions: read-out: IZ.
Experiment [26] concerns Candida albicans. The experiment can be described thus: Antifungal activity against Candida albicans assessed as inhibition zone at 120 ug/disk. The experiment is classed as functional. The settings on record: read-out: IZ.
In experiment [27] the test system is P388. The experiment can be described thus: Cytotoxicity against mouse P388 cells. The class given is functional, cell-based.
For experiment [28], the system named is Mycobacterium tuberculosis. The experiment can be described thus: Antibacterial activity against Mycobacterium tuberculosis H37Rv. The class given is functional.
Experiment [29] has as its system MDA-MB-468. Nature of the experiment: Cytotoxicity against human MDA-MB-468 cells. The experiment is classed as functional, cell-based.
Experiment [30] relates to MCF7. Nature of the experiment: Cytotoxicity against human MCF7 cells by MTT assay. The class given is functional, cell-based.
Experiment [31] concerns HL-60. Nature of the experiment: Cytotoxicity against human HL60 cells by MTT assay. The experiment is classed as functional, cell-based.
Experiment [32] concerns A549. The experiment can be described thus: Cytotoxicity against human A549 cells by MTT assay. The class given is functional, cell-based.
In experiment [33] the test system is SW480. Nature of the experiment: Cytotoxicity against human SW480 cells by MTT assay. The experiment is classed as functional, cell-based.
In experiment [34] the test system is SMMC-7721. The experiment can be described thus: Cytotoxicity against human SMMC7721 cells by MTT assay. The experiment is classed as functional, cell-based.
Experiment [35] concerns Candida albicans. Nature of the experiment: Antifungal activity against Candida albicans assessed as inhibition zone at 2 ug/disk. The class given is functional. The settings on record: read-out: IZ.
The subject of experiment [36] is PC-3. Nature of the experiment: Cytotoxicity against human PC3 cells. The class given is functional, cell-based.
For experiment [37], the system named is MIA PaCa-2. The experiment can be described thus: Cytotoxicity against human MIAPaCa2 cells. The experiment is classed as functional, cell-based.
The subject of experiment [38] is MCF7. Nature of the experiment: Cytotoxicity against human MCF7 cells. The class given is functional, cell-based.
Experiment [39] relates to Dunaliella salina. The experiment can be described thus: Algicidal activity against Dunaliella salina. The class given is functional.
Experiment [40] has as its system [Chlorella] fusca. The experiment can be described thus: Algicidal activity against Chlorella fusca IAM C-28. Conditions: Scenedesmus fuscus. The experiment is classed as functional.
Experiment [41] has as its system Daucus carota. The experiment can be described thus: Herbicidal activity against Daucus carota. The experiment is classed as functional.
Experiment [42] has as its system Dunaliella tertiolecta. Nature of the experiment: Algicidal activity against Dunaliella tertiolecta ATCC 30929. The experiment is classed as functional.
Experiment [43] has as its system Anabaena cylindrica. Nature of the experiment: Growth inhibition of Anabaena cylindrica NIES 19. The experiment is classed as functional.
The test system of experiment [44] is Nostoc commune. The experiment can be described thus: Growth inhibition of Nostoc commune NIES 24. The experiment is classed as functional.
Experiment [45] deals with Auxenochlorella pyrenoidosa. The experiment can be described thus: Algicidal activity against Chlorella pyrenoidosa IAM C-212. The experiment is classed as functional.
Experiment [46] concerns Armoracia rusticana. Nature of the experiment: Herbicidal activity against Armoracia rusticana. The class given is functional.
Experiment [47] concerns Catharanthus roseus. The experiment can be described thus: Herbicidal activity against Catharanthus roseus. The class given is functional.
For experiment [48], the system named is Escherichia coli. The experiment can be described thus: Antibacterial activity against Escherichia coli. The class given is functional.
Experiment [49] deals with Chlamydomonas reinhardtii. The experiment can be described thus: Algicidal activity against Chlamydomonas reinhardtii IAM C-238. The class given is functional.
Experiment [50] concerns Serratia marcescens. The experiment can be described thus: Antibacterial activity against Serratia marcescens. The class given is functional.
Experiment [51] concerns Trichormus variabilis. The experiment can be described thus: Growth inhibition of Anabaena variabilis NIES 23. The experiment is classed as functional.

As for `C1SSCSSS1`, the MIC in [1] is 12.5 µg/mL (≈ 66.4 µM); in [2], 50 µg/mL (≈ 265 µM); in experiment [3], 50 µg/mL (≈ 265 µM); in experiment [4], 3.12 µg/mL (≈ 16.6 µM); in experiment [5], 12.5 µg/mL (≈ 66.4 µM); in experiment [6], 6.25 µg/mL (≈ 33.2 µM). The MIC was 6.25 µg/mL (≈ 33.2 µM) in [7], 3.12 µg/mL (≈ 16.6 µM) in experiment [8] and 6.25 µg/mL (≈ 33.2 µM) in experiment [9].
For the compound `COc1c(SC)c(CCN(C)C)c2sc3c(OC)c(OC)c(SC)c(CCN(C)C)c3ssc2c1OC` [LISSOCLIBADIN 2], the IC50 in experiment [10] worked out at 270 nM; in experiment [11], 140 nM; in experiment [12], 80 nM; in experiment [13] it was 100 nM; in experiment [15], 240 nM; in [16], 210 nM. Moreover, it took 200 nM to reach half-maximal inhibition in experiment [17] (IC50). For the same compound, the zone of inhibition at 50 µg/disc in experiment [14] was 28.2 mm.
In the case of `CC(C)CCCCC1=CN=CN2COC(=O)N12`, the EC50 was determined as 0.36 µg/mL (≈ 1.52 µM) in [18]; 0.7 µg/mL (≈ 2.95 µM) in experiment [19]; 0.76 µg/mL (≈ 3.2 µM) in experiment [20]; 0.6 µg/mL (≈ 2.53 µM) in experiment [21]; 0.62 µg/mL (≈ 2.61 µM) in experiment [22].
In the case of `C=C(C)C1CNC(NCC=C(C)C)=NO1` (stereo unspecified), the half-maximal inhibitory concentration (IC50) turned out to be 93 µg/mL (≈ 444 µM) in [23] and 27 µg/mL (≈ 129 µM) in [24].
Consider `COc1cc(C2(c3ncc[nH]3)SSSCC2O)ccc1O` (single isomer, unassigned; (+)), for which the zone of inhibition at 120 µg/disc in experiment [25] and in experiment [26] was 4 mm each time. The 50% inhibitory concentration (IC50) in experiment [27] came to 21600 nM. Further, the Activity in experiment [28] turned out to be 10%.
Regarding `COc1c(SC)c(CCN(C)C)c2sc3c(CCN(C)C)c(SC)c(OC)c(OC)c3ssc2c1OC` [LISSOCLINOTOXIN F], the IC50 in experiment [29] turned out to be 4.2 µg/mL (≈ 6.97 µM); in experiment [12] it was 230 nM; in experiment [16], 280 nM.
For `CN1CC[C@]23c4ccccc4N[C@H]1[C@@]21CCN2CN4c5ccccc5[C@@]56CCN(C)[C@@]45N(c4c6cccc41)[C@@H]23`, the half-maximal inhibitory concentration (IC50) in experiment [30], in experiment [31], in [32], in [33] and in [34] was > 40000 nM in each case.
With `COc1cc(CCN)c2c(c1OC)SSSSS2` [VARACIN], the zone of inhibition at 2 µg/disc in [35] came out at 14 mm. Also, the half-inhibitory concentration (IC50) is 0.6 nM in experiment [36], 1.8 nM in experiment [37] and 1.69 nM in experiment [38]. The same compound displayed a concentration for an effect of 90% (IC90) in experiment [11] of 0.05 µg/mL (≈ 0.147 µM).
On to `Cn1ncnc2c(=O)[nH]nc1-2`, for which the minimal inhibitory concentration (MIC) in experiment [39] is 15 µM (≈ 2.27 µg/mL); in experiment [40], 5 µM (≈ 0.756 µg/mL); in [2], 6 µg/mL (≈ 39.7 µM); in experiment [41] it was 1 to 2 µg/mL (≈ 6.62 to 13.2 µM); in experiment [3] it was 12 µg/mL (≈ 79.4 µM); in experiment [42], 20 µM (≈ 3.02 µg/mL). Moreover, the minimal inhibitory concentration (MIC) in experiment [43] was 30 µM (≈ 4.53 µg/mL); in experiment [44], 20 µM (≈ 3.02 µg/mL); in experiment [45] it was 30 µM (≈ 4.53 µg/mL); in experiment [46], 1 to 2 µg/mL (≈ 6.62 to 13.2 µM); in experiment [47], 1 to 2 µg/mL (≈ 6.62 to 13.2 µM); in experiment [48] it was 8 µg/mL (≈ 52.9 µM). Besides, the MIC in experiment [49] is 30 µM (≈ 4.53 µg/mL); in experiment [50], 7 µg/mL (≈ 46.3 µM); in [51], 30 µM (≈ 4.53 µg/mL).
